The test system of one data set is TNF-α. The experiment in a line: TNF-α production from LPS-stimulated human monocytes (ELISA). Type of data set: cell-based. The note with it: Monocyte; for inhibition at 10 µM: Conc. 10 μM. The protocol:
Tumor Necrosis Factor Alpha (TNF-α)
This assay determines the effect of test compounds on the production of TNF-α from human monocytes. Compounds were tested for their ability to downregulate the production of TNF-α in activated monocytes. Test compounds were incubated for three, six and twenty four hours with human monocytes. Lipopolysaccharide was used to stimulate the monocytes. The level of TNF-α was quantitated using Enzyme-Linked Immunosorbent assay performed in a 96 well format.

A further data set concerns IL-6. The experiment in a line: IL-6 production from LPS-stimulated human monocytes (ELISA). The class given is cell-based. The conditions noted are these: Monocyte; for inhibition at 1 µM: Conc. 1 μM. On the procedure: This assay determines the effect of test compounds on the production of IL-6 from human monocytes. Compounds are tested for their ability to downregulate the production of IL-6 in activated monocytes. Test compounds were incubated for three, six and twenty four hours with human monocytes. Lipopolysaccharide was used to stimulate the monocytes. The level of Interleukin-6 is quantitated using Enzyme-Linked Immunosorbent assay performed in a 96 well format.

In a further data set the target is T1, COX-2 (Homo sapiens, UniProt P35354).
T1 construct: Fresh blood was collected in tubes containing potassium EDTA by vein puncture from male volunteers; endogenous in cells; host or cells: fresh human whole blood from male volunteers, aspirin-pretreated, LPS-stimulated for 24 h
T1 sequence (P35354 18-604): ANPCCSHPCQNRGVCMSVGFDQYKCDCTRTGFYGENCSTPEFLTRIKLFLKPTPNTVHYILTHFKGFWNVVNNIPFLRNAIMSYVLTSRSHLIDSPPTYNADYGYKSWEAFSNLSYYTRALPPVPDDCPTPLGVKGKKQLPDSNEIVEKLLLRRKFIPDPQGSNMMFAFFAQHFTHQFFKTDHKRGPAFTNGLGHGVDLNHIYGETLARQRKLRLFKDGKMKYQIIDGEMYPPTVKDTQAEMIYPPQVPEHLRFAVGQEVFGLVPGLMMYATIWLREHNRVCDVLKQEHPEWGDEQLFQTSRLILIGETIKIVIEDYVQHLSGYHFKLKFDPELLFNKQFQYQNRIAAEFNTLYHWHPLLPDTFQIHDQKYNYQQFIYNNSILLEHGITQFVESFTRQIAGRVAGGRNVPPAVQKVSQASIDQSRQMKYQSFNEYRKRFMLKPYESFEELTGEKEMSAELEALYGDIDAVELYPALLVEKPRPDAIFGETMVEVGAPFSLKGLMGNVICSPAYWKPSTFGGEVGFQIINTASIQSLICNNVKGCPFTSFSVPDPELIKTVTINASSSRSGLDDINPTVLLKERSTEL
The experiment in a line: Human whole blood assay, COX-2 inhibition (LPS-induced PGE2). The conditions noted are these: 24 h. The class given is cell-based. The protocol:
In vitro Evaluation of Cycloxygenase-2 (COX-2) Inhibition Activity
The COX-2 inhibition activity of the compounds illustrated in the examples was determined by the following method.
Human whole blood provides a protein and cell rich milieu appropriate for the study of biochemical efficacy of anti-inflammatory compounds such as selective COX-2 inhibitors. […] This is correlating with the observation that COX-2 inhibitors have no effect on prostaglandin E2 (PGE2) production in normal blood. These inhibitors are active only after incubation of human blood with lipopolysaccharide (LPS), which induces COX-2 production in the blood.
Fresh blood was collected in tubes containing potassium EDTA by vein puncture from male volunteers. The subjects should have no apparent inflammatory conditions and not taken NSAIDs for atleast 7 days prior to blood collection. Blood was treated with aspirin in vitro (10 μg/ml, at time zero) to inactivate COX-1, and then with LPS (10 μg/ml) along with test agents or vehicle. The blood was incubated for 24 h at 37° C., after which the tubes were centrifuged, the plasma was separated and stored at −80° C. (J Pharmacol Exp Ther 271, 1705, 1994; Proc Natl Acad Sci USA 96, 7563, 1999). The plasma was assayed for PGE2 using Cayman ELISA kit as per the procedure outlined by the manufacturer (Cayman Chemicals, Ann Arbor, USA). […]

Data set [1] relates to Male Wistar rats. As to the kind of experiment: Rat carrageenan paw edema test. Type of data set: in vivo. The conditions noted are these: oral. The protocol: Rat Carrageenan Paw Edema Test
The carrageenan paw edema test was performed as described by Winter et al (Proc. Soc. Exp Biol Me., 111, 544, 1962). Male Wistar rats were selected and the body weight were equivalent within each group. The rats were fasted for eighteen hours with free access to water. The rats were dosed orally with the test compound suspended in vehicle containing 0.5% Methycellulose. The control rats were administered the vehicle alone. After one hour the rats were injected with 0.1 ml of 1% Carrageenan solution in 0.9% saline into the sub plantar surface of the right hind paw. Paw thickness was measured using vernier calipers at 0 time, after 2 and 3 hours. The average of foot swelling in drug treated animals was compared with that of control animals. Anti-inflammatory activity was expressed as the percentage inhibition of edema compared with control group [Arzneim-Forsch/Drug Res 43(I), 1, 44-50, 1993; Otterness and Bliven, Laboratory Models for Testing NSAIDs, In Non-Steroidal Anti-Inflammatory Drugs, (J. Lombardino, ed. 1985)]. The data of the selected compounds in this invention are summarized in Table I. In order to evaluate their role on the ulcer formation, the animals were sacrificed by cervical dislocation, the stomach removed and flushed with 1% formalin (10 ml). The stomach was opened along the greater curvature. […]

Data set [2] has as its system Male Wistar rats. As to the kind of experiment: Gastro-ulcerogenic potential (ulcer formation in the rats of the paw edema test). The note with it: oral dosing. The class given is in vivo, rat. The protocol:
The carrageenan paw edema test was performed as described by Winter et al (Proc. Soc. Exp Biol Me., 111, 544, 1962). Male Wistar rats were selected and the body weight were equivalent within each group. The rats were fasted for eighteen hours with free access to water. The rats were dosed orally with the test compound suspended in vehicle containing 0.5% Methycellulose. The control rats were administered the vehicle alone. After one hour the rats were injected with 0.1 ml of 1% Carrageenan solution in 0.9% saline into the sub plantar surface of the right hind paw. Paw thickness was measured using vernier calipers at 0 time, after 2 and 3 hours. The average of foot swelling in drug treated animals was compared with that of control animals. Anti-inflammatory activity was expressed as the percentage inhibition of edema compared with control group [Arzneim-Forsch/Drug Res 43(I), 1, 44-50, 1993; Otterness and Bliven, Laboratory Models for Testing NSAIDs, In Non-Steroidal Anti-Inflammatory Drugs, (J. Lombardino, ed. 1985)]. The data of the selected compounds in this invention are summarized in Table I. In order to evaluate their role on the ulcer formation, the animals were sacrificed by cervical dislocation, the stomach removed and flushed with 1% formalin (10 ml). The stomach was opened along the greater curvature. The haemorrhagic puncta and sulci were identified macroscopically.

Regarding `CSc1ccc(Nc2nc(=O)cc(N)n2-c2ccc(C)cc2)cc1` [Example 8, 6-amino-1-(4-methylphenyl)-2-(4-methylthio-phenylamino)-1H-pyrimidin-4-one], the melting point is 231 to 234 °C.

With `Nc1cc(=O)nc(Nc2ccc(F)cc2)n1-c1ccccc1` [Example 7, 6-amino-2-(4-fluoro-phenylamino)-1-phenyl-1H-pyrimidin-4-one], the melting point is 225 to 227 °C.

As for `CSc1ccc(Nc2nc(=O)cc(N)n2-c2ccccc2)cc1` [Example 4, 6-amino-2-(4-methylthio-phenylamino)-1-phenyl-1H-pyrimidin-4-one], the melting point lay in the range of 133 to 135 °C. The compound also showed an inhibition at 10 µM in the data set with TNF-α of 43.5%. Also, in the data set with IL-6, the inhibition at 1 µM came out at 56.7%.

In turn, `CCOc1ccc(-n2c(N)cc(=O)nc2Nc2ccccc2)cc1` [Example 10, 6-amino-1-(4-ethoxyphenyl)-2-phenylamino-1H-pyrimidin-4-one] had a melting point of 114 to 118 °C. At COX-2 (Conc. 1 μM), this compound gave an inhibition at 1 µM of 33.3%.

`Cc1ccc(Nc2nc(=O)cc(N)n2-c2ccccc2)cc1` [Example 5, 6-amino-2-(4methyl-phenylamino)-1-phenyl-1H-pyrimidin-4-one] showed a melting point of 207 to 210 °C.

`Nc1cc(=O)nc(Nc2ccccc2)n1-c1ccc(Cl)cc1` [Example 11, 6-amino-1-(4-chlorophenyl)-2-phenylamino-1H-pyrimidin-4-one] registered a melting point of 216 to 222 °C. Moreover, 1 µM produced 59.5% inhibition in the data set on IL-6.

Compound `COc1ccc(-n2c(N)cc(=O)nc2Nc2ccccc2)cc1` [Example 9, 6-amino-1-(4-methoxyphenyl)-2-phenylamino-1H-pyrimidin-4-one] had a melting point of 180 to 190 °C. In the data set on TNF-α, this compound gave an inhibition at 10 µM of 45.2%. The inhibition at 1 µM in the data set with IL-6 was 75.4%.

Compound `COc1ccc(Nc2nc(=O)cc(N)n2-c2ccccc2)cc1` [Example 2, 6-amino-2-(4-methoxy-phenylamino)-1-phenyl-1H-pyrimidin-4-one] yielded a melting point of 213 to 216 °C. In the data set on IL-6, this compound returned an inhibition at 1 µM of 65.1%.

`Nc1cc(=O)nc(Nc2ccc(Cl)cc2)n1-c1ccccc1` [Example 6, 6-amino-2-(4-chloro-phenylamino)-1-phenyl-1H-pyrimidin-4-one] showed a melting point of 233 to 237 °C. 1 µM produced 44.6% inhibition in the data set on IL-6.

The compound `CCOc1ccc(Nc2nc(=O)cc(N)n2-c2ccccc2)cc1` [Example 3, 6-amino-2-(4-ethoxy-phenylamino)-1-phenyl-1H-pyrimidin-4-one] returned a melting point of 111 to 113 °C. The inhibition at 1 µM in the data set on TNF-α (Conc. 1 μM) came to 58.3%. In the data set with IL-6, testing at 1 µM gave an inhibition of 82.3%.

`Nc1cc(=O)nc(Nc2ccccc2)n1-c1ccccc1` [Example 1, 6-amino-2-phenylamino-1-phenyl-1H-pyrimidin-4-one]: the melting point was 202 to 206 °C. Further, the “Rat Paw Edema model % Inhibition (10 mg/kg body weight)” value with Male Wistar rats [1] is given as 10%. Moreover, the “Gastro-ulcerogenic potential (% incidence of ulceration)” value with Male Wistar rats [2] was 24.6%. Besides, the inhibition at 10 µM on COX-2 (Conc. 10 μM) turned out to be 75.8%. Moreover, in the data set with IL-6 (Conc. 0.25 μM), 0.25 µM produced 46.6% inhibition.

On to `Nc1cc(=O)nc(Nc2ccccc2)n1-c1ccc(Br)cc1` [Example 12, 6-amino-1-(4-bromophenyl)-2-phenylamino-1H-pyrimidin-4-one], for which the melting point was 211 to 213 °C.

The values are drawn from patent US20030232813A1, “Novel amino substituted pyrimidinone derivatives” (ORCHID CHEMICALS & PHARMACEUTICALS LIMITED, priority 2002, published 2003).
